pKi: −log10 of the molar value.
Target: AmpC β-lactamase (Escherichia coli, UniProt P00811)
Experiment: biochemical
Assay type: biochemical

AmpC β-lactamase, sequence (P00811 20-377): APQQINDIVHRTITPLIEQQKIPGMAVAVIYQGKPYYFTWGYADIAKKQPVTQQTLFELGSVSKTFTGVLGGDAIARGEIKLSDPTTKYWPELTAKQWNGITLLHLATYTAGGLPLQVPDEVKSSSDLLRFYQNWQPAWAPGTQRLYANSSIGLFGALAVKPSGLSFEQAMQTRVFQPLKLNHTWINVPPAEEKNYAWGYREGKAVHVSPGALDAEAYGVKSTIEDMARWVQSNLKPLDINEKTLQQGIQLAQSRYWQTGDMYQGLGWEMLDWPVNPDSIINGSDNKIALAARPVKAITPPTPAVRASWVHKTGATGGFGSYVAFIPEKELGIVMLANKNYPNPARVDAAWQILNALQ

SMILES | increase of affinity for AmpC compared to non-carboxylate analog (4-carboxy derivative vs non-carboxylate analog (6–9, 1)) | pKi
Cc1noc(C)c1S(=O)(=O)Nc1cc(B(O)O)ccc1C(=O)O [compound 12] | performed worse with respect to its analog | 
O=C(O)c1ccc(C(=O)Nc2cccc(S(=O)(=O)Nc3cc(B(O)O)ccc3C(=O)O)c2)cc1 [compound 13] |  | 7.00
